Results on 5 compounds are retold here after patent US12559529B2, “NPY2 receptor agonists” (Boehringer Ingelheim International GmbH, priority 2019, dated 2026).

*1 amine or outer side, *2 acyl side, *3 side chain or, on linkers, in order; H or OH if unused. Where a SMILES comes first, the peptide text is derived from it. Side-chain parts run from the residue outwards. The star is where a group is joined. C18 diacid = O=C(O)CCCCCCCCCCCCCCCCC(=O)*; γGlu = O=C(O)[C@H](CCC(=O)[*:2])N[*:1]; Isovaleryl = CC(C)CC(=O)*; AEEA = NCCOCCOCC(=O)O

By Ki is commonly meant the dissociation constant of the complex between target and ligand, obtained from inhibition or displacement.

This assay has as its target T1, Human Neuropeptide Y2 Receptor (Homo sapiens, UniProt P49146).
T1 construct: purchased CHEMICON HTS066M
T1 sequence (P49146 1-381): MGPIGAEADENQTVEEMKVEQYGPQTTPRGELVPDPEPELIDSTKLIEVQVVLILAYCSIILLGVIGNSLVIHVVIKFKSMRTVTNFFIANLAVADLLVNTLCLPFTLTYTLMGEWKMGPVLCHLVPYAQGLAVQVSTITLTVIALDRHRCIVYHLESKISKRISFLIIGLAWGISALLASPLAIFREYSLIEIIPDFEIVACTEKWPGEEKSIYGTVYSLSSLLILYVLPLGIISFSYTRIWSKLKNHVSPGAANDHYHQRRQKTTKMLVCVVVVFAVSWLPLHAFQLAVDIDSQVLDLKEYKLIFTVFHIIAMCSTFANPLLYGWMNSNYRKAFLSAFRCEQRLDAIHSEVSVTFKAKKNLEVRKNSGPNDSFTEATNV
The assay is described as follows: Radioligand binding competition assay (RLB). The conditions noted are these: Table 3; human 125I-PYY (1-36) 0.02 nM, Y2 receptor membranes; read-out: Ki. The essentials:
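IC50 values come from nonlinear regression of sigmoidal dose-response curves of filter-bound radioactivity. Peptides competed with radioligand at human Y2 receptor membranes (0.5 μg protein/well) for 2 h at room temperature in pH 7.4 HEPES buffer containing Mg2+, Ca2+ and 0.2% ovalbumin.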
For `CC(C)CC(=O)N[C@@H](C)C(=O)N1CCC[C@H]1C(=O)N[C@@H](CCC(=O)O)C(=O)N[C@@H](CCCCNC(=O)COCCOCCNC(=O)COCCOCCNC(=O)CC[C@H](NC(=O)CCCCCCCCCCCCCCCCC(=O)O)C(=O)O)C(=O)N1CCC[C@H]1C(=O)N[C@@H](CCC(=O)O)C(=O)N[C@@H](CCC(=O)O)C(=O)N[C@@H](CC(=O)O)C(=O)N[C@@H](C)C(=O)N[C@@H](CO)C(=O)N1CCC[C@H]1C(=O)N[C@@H](CCC(=O)O)C(=O)N[C@@H](CCC(=O)O)C(=O)N[C@@H](C)C(=O)N[C@@H](CCC(N)=O)C(=O)N[C@@H](CCCNC(=N)N)C(=O)N[C@@H](Cc1ccc(O)cc1)C(=O)N[C@@H](Cc1ccc(O)cc1)C(=O)N[C@H](C(=O)N[C@@H](CO)C(=O)N[C@@H](CC(C)C)C(=O)N[C@@H](CCCNC(=N)N)C(=O)N[C@@H](Cc1c[nH]cn1)C(=O)N[C@@H](Cc1ccc(O)cc1)C(=O)N[C@@H](Cc1ccc(O)cc1)C(=O)N[C@@H](CC(N)=O)C(=O)N[C@@H](Cc1c[nH]c2ccccc12)C(=O)N[C@@H](CC(C)C)C(=O)N[C@H](C(=O)N[C@@H](CCCNC(=N)N)C(=O)N[C@@H](CCC(N)=O)C(=O)N[C@@H](CCCNC(=N)N)C(=O)N[C@@H](Cc1ccc(O)cc1)C(N)=O)[C@@H](C)O)C(C)C` [Compound 55, N{alpha-4}-(3-methylbutanoyl)-N{epsilon-7}-[2-(2-{2-[2-(2-{2-[(4S)-4-carboxy-4-(17-carboxyheptadecanamido)butanamido]ethoxy}ethoxy)acetamido]ethoxy}ethoxy)acetamido]-[4A,7K,9E,17A,18Q,22V,28Y,30W,31L]hPYY (4-36)], the Ki came to 3.35 nM. Next, `CC(C)CC(=O)N[C@@H](C)C(=O)N1CCC[C@H]1C(=O)N[C@@H](CCC(=O)O)C(=O)N[C@@H](CCCCNC(=O)COCCOCCNC(=O)COCCOCCNC(=O)CC[C@H](NC(=O)CCCCCCCCCCCCCCCCC(=O)O)C(=O)O)C(=O)N1CCC[C@H]1C(=O)N[C@@H](CCC(=O)O)C(=O)N[C@@H](C)C(=O)N[C@@H](CC(=O)O)C(=O)N[C@@H](C)C(=O)N[C@@H](CO)C(=O)N1CCC[C@H]1C(=O)N[C@@H](CCC(=O)O)C(=O)N[C@@H](CCC(=O)O)C(=O)N[C@@H](CC(C)C)C(=O)N[C@@H](CCC(N)=O)C(=O)N[C@@H](CCCNC(=N)N)C(=O)N[C@@H](Cc1ccc(O)cc1)C(=O)N[C@@H](Cc1ccc(O)cc1)C(=O)N[C@H](C(=O)N[C@@H](C)C(=O)N[C@@H](CC(C)C)C(=O)N[C@@H](CCCNC(=N)N)C(=O)N[C@@H](Cc1c[nH]cn1)C(=O)N[C@@H](Cc1ccc(O)cc1)C(=O)N[C@@H](Cc1ccc(O)cc1)C(=O)N[C@@H](CC(N)=O)C(=O)N[C@@H](Cc1c[nH]c2ccccc12)C(=O)N[C@@H](CC(C)C)C(=O)N[C@H](C(=O)N[C@@H](CCCNC(=N)N)C(=O)N[C@@H](CCC(N)=O)C(=O)N[C@@H](CCCNC(=N)N)C(=O)N[C@@H](Cc1ccc(O)cc1)C(N)=O)[C@@H](C)O)C(C)C` [Compound 181, N{alpha-4}-(3-methylbutanoyl)-N{epsilon-7}-[2-(2-{2-[2-(2-{2-[(4S)-4-carboxy-4-(17-carboxyheptadecanamido)butanamido]ethoxy}ethoxy)acetamido]ethoxy}ethoxy)acetamido]-[4A,7K,9E,10A,18Q,22V,23A,28Y,30W,31L]hPYY (4-36)]: 0.67 nM; `CC(C)CC(=O)N[C@@H](C)C(=O)N1CCC[C@H]1C(=O)N[C@@H](CCC(=O)O)C(=O)N[C@@H](CCCCNC(=O)COCCOCCNC(=O)COCCOCCNC(=O)CC[C@H](NC(=O)CCCCCCCCCCCCCCCCC(=O)O)C(=O)O)C(=O)N1CCC[C@H]1C(=O)N[C@@H](CCC(=O)O)C(=O)N[C@@H](CCC(=O)O)C(=O)N[C@@H](CCC(=O)O)C(=O)N[C@@H](C)C(=O)N[C@@H](CO)C(=O)N1CCC[C@H]1C(=O)N[C@@H](CCC(=O)O)C(=O)N[C@@H](CCC(=O)O)C(=O)N[C@@H](CC(C)C)C(=O)N[C@@H](CCC(N)=O)C(=O)N[C@@H](CCCNC(=N)N)C(=O)N[C@@H](Cc1ccc(O)cc1)C(=O)N[C@@H](Cc1ccc(O)cc1)C(=O)N[C@H](C(=O)N[C@H](C(=O)N[C@@H](CC(C)C)C(=O)N[C@@H](CCCNC(=N)N)C(=O)N[C@@H](Cc1c[nH]cn1)C(=O)N[C@@H](Cc1ccc(O)cc1)C(=O)N[C@@H](Cc1ccc(O)cc1)C(=O)N[C@@H](CC(N)=O)C(=O)N[C@@H](Cc1c[nH]c2ccccc12)C(=O)N[C@@H](CC(C)C)C(=O)N[C@H](C(=O)N[C@@H](CCCNC(=N)N)C(=O)N[C@@H](CCC(N)=O)C(=O)N[C@@H](CCCNC(=N)N)C(=O)N[C@@H](Cc1ccc(O)cc1)C(N)=O)[C@@H](C)O)[C@@H](C)O)C(C)C` [Compound 119, N{alpha-4}-(3-methylbutanoyl)-N{epsilon-7}-[2-(2-{2-[2-(2-{2-[(4S)-4-carboxy-4-(17-carboxyheptadecanamido)butanamido]ethoxy}ethoxy)acetamido]ethoxy}ethoxy)acetamido]-[4A,7K,9E,11E,18Q,22V,23T,28Y,30W,31L]hPYY (4-36)]: 3.32 nM; `CC(C)CC(=O)N[C@@H](C)C(=O)N1CCC[C@H]1C(=O)N[C@@H](CCC(=O)O)C(=O)N[C@@H](CCCCNC(=O)COCCOCCNC(=O)COCCOCCNC(=O)CC[C@H](NC(=O)CCCCCCCCCCCCCCCCC(=O)O)C(=O)O)C(=O)N1CCC[C@H]1C(=O)N[C@@H](CCC(=O)O)C(=O)N[C@@H](CCC(=O)O)C(=O)N[C@@H](CCC(=O)O)C(=O)N[C@@H](C)C(=O)N[C@@H](CO)C(=O)N1CCC[C@H]1C(=O)N[C@@H](CCC(=O)O)C(=O)N[C@@H](CO)C(=O)N[C@@H](CC(C)C)C(=O)N[C@@H](CCC(N)=O)C(=O)N[C@@H](CCCNC(=N)N)C(=O)N[C@@H](Cc1ccc(O)cc1)C(=O)N[C@@H](Cc1ccc(O)cc1)C(=O)N[C@H](C(=O)N[C@@H](CO)C(=O)N[C@@H](CC(C)C)C(=O)N[C@@H](CCCNC(=N)N)C(=O)N[C@@H](Cc1c[nH]cn1)C(=O)N[C@@H](Cc1ccc(O)cc1)C(=O)N[C@@H](Cc1ccc(O)cc1)C(=O)N[C@@H](CC(N)=O)C(=O)N[C@@H](Cc1c[nH]c2ccccc12)C(=O)N[C@@H](CC(C)C)C(=O)N[C@H](C(=O)N[C@@H](CCCNC(=N)N)C(=O)N[C@@H](CCC(N)=O)C(=O)N[C@@H](CCCNC(=N)N)C(=O)N[C@@H](Cc1ccc(O)cc1)C(N)=O)[C@@H](C)O)C(C)C` [Compound 45, N{alpha-4}-(3-methylbutanoyl)-N{epsilon-7}-[2-(2-{2-[2-(2-{2-[(4S)-4-carboxy-4-(17-carboxyheptadecanamido)butanamido]ethoxy}ethoxy)acetamido]ethoxy}ethoxy)acetamido]-[4A,7K,9E,11E,16S,18Q,22V,28Y,30W,31L]hPYY (4-36)] (Isovaleryl-APEK([AEEA-AEEA-γGlu-C18 diacid])PEEEASPESLQRYYVSLRHYYNWLTRQRY-NH2): 3.97 nM. For `CC[C@H](C)[C@H](NC(=O)[C@H](CCC(=O)O)NC(=O)[C@H](CCC(=O)O)NC(=O)[C@@H]1CCCN1C(=O)[C@H](CO)NC(=O)[C@H](C)NC(=O)[C@H](CC(=O)O)NC(=O)[C@H](CCC(=O)O)NC(=O)[C@H](CCC(=O)O)NC(=O)[C@H](C)NC(=O)[C@H](CCCCNC(=O)COCCOCCNC(=O)COCCOCCNC(=O)CC[C@H](NC(=O)CCCCCCCCCCCCCCCCC(=O)O)C(=O)O)NC(=O)[C@H](CCC(=O)O)NC(=O)[C@@H]1CCCN1C(=O)[C@H](C)NC(=O)CC(C)C)C(=O)N[C@@H](CCC(N)=O)C(=O)N[C@@H](CCCNC(=N)N)C(=O)N[C@@H](Cc1ccc(O)cc1)C(=O)N[C@@H](Cc1ccc(O)cc1)C(=O)N[C@H](C(=O)N[C@@H](CO)C(=O)N[C@@H](CC(C)C)C(=O)N[C@@H](CCCNC(=N)N)C(=O)N[C@@H](Cc1c[nH]cn1)C(=O)N[C@@H](Cc1ccc(O)cc1)C(=O)N[C@@H](Cc1ccc(O)cc1)C(=O)N[C@@H](CC(N)=O)C(=O)N[C@@H](Cc1c[nH]c2ccccc12)C(=O)N[C@@H](CC(C)C)C(=O)N[C@H](C(=O)N[C@@H](CCCNC(=N)N)C(=O)N[C@@H](CCC(N)=O)C(=O)N[C@@H](CCCNC(=N)N)C(=O)N[C@@H](Cc1ccc(O)cc1)C(N)=O)[C@@H](C)O)C(C)C` [Compound 152, N{alpha-4}-(3-methylbutanoyl)-N{epsilon-7}-[2-(2-{2-[2-(2-{2-[(4S)-4-carboxy-4-(17-carboxyheptadecanamido)butanamido]ethoxy}ethoxy)acetamido]ethoxy}ethoxy)acetamido]-[4A,7K,8A,9E,17I,18Q,22V,28Y,30W,31L]hPYY (4-36)] the value was 5.18 nM.
